# Counter-ions that a name gives are not always drawn. Marks after values point to notes of the source that are not given here.
# Key:
# NMDA receptor = tested on: T1, NMDA receptor; assay: NMDA receptor assay (fura-2 cytosolic calcium in cultured rat cerebellar granule cells); type: cell-based; details: Table I, read-out: fura2 data IC50
# T1 construct: fura2 data IC50; rat cerebellar granule cells
# Description: All culture media, antibiotics, and enzymes, with the exception of fetal calf serum (Hyclone Laboratories, Logan, Utah), were purchased from Sigma Chemical Co., St. Louis, Mo. Fura-2/AM was obtained from Molecular Probes, Eugene, Oreg., and was prepared freshly in dimethylsulfoxide (DMSO) before use. Ionomycin (Calbiochem) was stored as a stock solution in DMSO. Nifedipine (Sigma) and nimodipine (RBI) were dissolved in absolute ethanol. […] All other agents were dissolved in phosphate-buffered saline (PBS), and adjusted to pH 7.4
# Preparation of Rat Cerebellar Granule Cell (RCGC) Cultures
# Briefly, primary cultures of cerebellar granule neurons were obtained from 8-day-old rats and plated onto squares of Aclar plastic coated with poly-L-lysine. The plastic squares were placed in 12-well culture plates, and ˜7.5×10^5 cells were added to each well. Cultures were maintained in Eagles's medium containing 25 mM KCl, 10% fetal calf serum, 2 mM glutamine, 100 μg/ml gentamicin, 50 U/ml penicillin, and 50 μg/ml streptomycin at 37° C. in a humid atmosphere of 5%CO2 in air for 24 hr before the addition of cytosine arabinoside (10 μM, final). No changes of culture medium were made until the cells were used for fluorescence recording 6-8 days after plating.
# Measurement of Cytosolic Calcium
# (“Ca^2+-free” buffer contained no added CaCl2 and 30 μM EGTA). The cells were then rinsed with the same buffer, lacking fura-2/AM, and maintained at room temperature until used for measurement of fluorescence, the Aclar squares were transferred into quartz cuvettes containing 2 ml of the HEPES buffer. The cuvette was then placed into a thermostatted holder equipped with a magnetic stirrer in a custom-built spectrofluorimeter (Biomedical Instrumentation Group, University of Pennsylvania, Philadelphia, Pa.). The size of the plastic Aclar square was such as to fit snugly in the cuvette when placed at a diagonal and therefore suspend itself over the spin bar. Fluorescence was measured using excitation and emission wavelengths of 340 and 510 nm, respectively. The amplitude of the evoked increase in fluorescence and subsequent inhibition were recorded and the concentration of [Ca^2+]i was calculated using the formula:
# [Ca^2+]=Kd (F-Fmin)/(Fmax-F) (Eq. 1)
# F=fluorescence amplitude evoked at a particular time point or concentration of compound;
# Fmin=minimum fluorescence determined after the addition of a 2.5 M TRIS/0.3 M EGTA solution;
# Fmax=maximum fluorescence determined following the addition of 7 mM ionomycin in DMSO; and […]
# [1] = biological target: T2, serotonin transporter site (Rattus norvegicus, UniProt P31652); assay: Serotonin reuptake inhibition assay ([3H]citalopram binding, rat forebrain membranes); details: Table I; read-out: 5-HT Uptake Ki
# T2 construct: tissue NovaScreen (performed the assay); host or cells: rat forebrain membranes
# T2 sequence (P31652 whole entry): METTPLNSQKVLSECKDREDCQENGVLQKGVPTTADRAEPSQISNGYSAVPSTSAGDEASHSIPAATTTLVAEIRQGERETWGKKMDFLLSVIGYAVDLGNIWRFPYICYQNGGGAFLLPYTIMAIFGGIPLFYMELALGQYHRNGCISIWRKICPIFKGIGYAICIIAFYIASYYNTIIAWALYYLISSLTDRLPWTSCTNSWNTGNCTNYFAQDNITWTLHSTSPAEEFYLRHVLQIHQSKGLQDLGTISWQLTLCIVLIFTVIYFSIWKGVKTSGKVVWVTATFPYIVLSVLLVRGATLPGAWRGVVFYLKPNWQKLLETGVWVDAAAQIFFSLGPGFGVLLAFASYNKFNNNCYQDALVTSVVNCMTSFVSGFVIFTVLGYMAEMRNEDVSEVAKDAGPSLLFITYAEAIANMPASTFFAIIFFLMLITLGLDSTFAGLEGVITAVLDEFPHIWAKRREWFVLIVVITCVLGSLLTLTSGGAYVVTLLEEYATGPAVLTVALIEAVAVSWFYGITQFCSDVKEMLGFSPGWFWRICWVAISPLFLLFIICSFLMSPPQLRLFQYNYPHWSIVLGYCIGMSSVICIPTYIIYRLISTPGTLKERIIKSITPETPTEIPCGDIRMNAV
# Description: (§1) Monoamine Transporter Minding Assays
# (§2) Monoamine transporter binding assays (reuptake inhibition assays) were performed by NovaScreen using standard radioligand binding assays. The transporter binding assays are described briefly below:
# Serotonin Reuptake Inhibition Assay
# Rat forebrain membranes were incubated with 0.7 nM [^3H] citalopram, N-methyl, (70-87 Ci/mmol)in 50 mM Tris-HCl (pH 7.4), 120 mM NaCl, and 5 mM KCl at 25° C. for 60 minutes. […] Reactions were terminated by rapid vacuum filtration onto glass fiber filters.
# [2] = biological target: T3, norepinephrine transporter site (Rattus norvegicus, UniProt Q63380); assay: Norepinephrine reuptake inhibition assay ([3H]nisoxetine binding, rat forebrain membranes); details: Table I; read-out: NE Uptake Ki
# T3 construct: tissue NovaScreen (performed the assay); host or cells: rat forebrain membranes
# T3 sequence (Q63380 1-617): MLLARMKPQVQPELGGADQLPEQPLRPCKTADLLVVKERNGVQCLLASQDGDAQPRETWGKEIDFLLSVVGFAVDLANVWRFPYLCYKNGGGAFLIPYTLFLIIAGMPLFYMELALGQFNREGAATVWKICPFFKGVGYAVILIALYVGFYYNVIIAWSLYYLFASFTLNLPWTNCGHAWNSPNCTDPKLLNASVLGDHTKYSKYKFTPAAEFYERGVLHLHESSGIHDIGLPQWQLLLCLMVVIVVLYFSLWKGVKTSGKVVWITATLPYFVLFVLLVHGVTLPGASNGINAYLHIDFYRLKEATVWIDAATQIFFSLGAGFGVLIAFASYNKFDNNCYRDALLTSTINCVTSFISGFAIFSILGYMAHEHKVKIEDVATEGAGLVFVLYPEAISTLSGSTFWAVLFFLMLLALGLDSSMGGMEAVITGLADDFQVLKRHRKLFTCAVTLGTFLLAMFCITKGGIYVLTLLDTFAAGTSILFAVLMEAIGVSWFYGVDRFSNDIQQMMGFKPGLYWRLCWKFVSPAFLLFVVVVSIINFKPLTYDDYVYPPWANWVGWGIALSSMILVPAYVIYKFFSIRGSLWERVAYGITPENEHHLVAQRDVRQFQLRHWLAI
# Description: as §1, §2
# Norepinephrine Reuptake Inhibition Assay
# Reactions were terminated by rapid vacuum filtration onto glass fiber filters.
# male NIH-Swiss mice = assay: Mouse forced-swim test (FST); type: in vivo
# Description: For the mouse and rat forced-swim tests, male pathogen-free NIH-Swiss mice (Harlan Sprague-Dawley) weighing between 22-25 g, and male pathogen-free Sprague-Dawley rats (Harlan Sprague-Dawley) weighing between 320-350 g were used. Animals were removed from the housing room to the testing area in their own cages and allowed to adapt to the new environment for at least 1 hour before testing. Mice were administered either drug (imipramine, 10 mg/kg i.p.; or Compound 60, various p.o or i.p. doses) or saline. Thirty minutes to 24 hours later, mice were placed individually in cylinders (diameter: 10 cm; height: 25 cm) filled with 6 cm of water (22-25° C.) for 6 minutes. The duration of immobility during the last 4 minutes of the 6 minute test was scored. A mouse was recorded as immobile when floating motionless or making only those movements necessary to keep its head above water. Results were expressed as the duration of immobility (seconds).
# male C57BL/6 mice = assay: Mouse tail-suspension test (TST) with Compound 60; type: in vivo; details: for Mean duration of immobility: Table VII, 5 mg/kg p.o. single dose, saline control 154.9
# Description: For the mouse tail-suspension test with Compound 60, male pathogen-free C57BL/6 mice (Harlan Sprague-Dawley) weighing between 22-25 g were used. Animals were removed from the housing room to the testing area in their own cages and allowed to adapt to the new environment for at least 1 hour before testing. Mice were administered either drug (imipramine, 15 mg/kg i.p.; or Compound 60, various p.o. doses) or saline. Thirty minutes to 24 hours later, the mice were suspended on the edge of a shelf 80 cm above the floor in the testing room by adhesive tape placed approximately 1 cm from the tip of the tail. The duration of immobility was recorded during a test period of 5 minutes. Mice were considered immobile only when they hung passively and completely motionless. Results were expressed as the duration of immobility (sec).
# Solubility = type: physicochemical; details: hydrochloride salt
smiles,measurement,setting,value
"CNCCC(c1cccc(F)c1)c1cccc(F)c1 [Compound 60, N-Methyl-3.,3-bis(3-fluorophenyl)propylamine hydrochloride]",IC50,NMDA receptor,416 nM
same,Ki,[1],68 nM
same,Ki,[2],> 10000 nM
same,Mean duration of immobility,"male NIH-Swiss mice; Table III, 5 mg/kg p.o. single dose, time post-dose 0.5, saline control 128.2",96.1 s
same,Mean duration of immobility,"male NIH-Swiss mice; Table III, 5 mg/kg p.o. single dose, time post-dose 1, saline control 128.2",38.8* sec
same,Mean duration of immobility,"male NIH-Swiss mice; Table III, 5 mg/kg p.o. single dose, time post-dose 2, saline control 128.2",66.2* sec
same,Mean duration of immobility,"male NIH-Swiss mice; Table III, 5 mg/kg p.o. single dose, time post-dose 4, saline control 128.2",66.9* sec
same,Mean duration of immobility,"male NIH-Swiss mice; Table III, 5 mg/kg p.o. single dose, time post-dose 6, saline control 128.2",76.8* sec
same,Mean duration of immobility,"male NIH-Swiss mice; Table III, 5 mg/kg p.o. single dose, time post-dose 24, saline control 128.2",124.8 s
same,Mean duration of immobility,"male NIH-Swiss mice; Table IV, 0.625 mg/kg single oral dose 60 minutes prior to testing, saline control 129.7",153.3 s
same,Mean duration of immobility,"male NIH-Swiss mice; Table IV, 1.25 mg/kg single oral dose 60 minutes prior to testing, saline control 129.7",72.3* sec
same,Mean duration of immobility,"male NIH-Swiss mice; Table IV, 2.5 mg/kg single oral dose 60 minutes prior to testing, saline control 129.7",64.5* sec
same,Mean duration of immobility,"male NIH-Swiss mice; Table IV, 5 mg/kg single oral dose 60 minutes prior to testing, saline control 129.7",56.6* sec
same,Mean duration of immobility,"male NIH-Swiss mice; Table IV, 10 mg/kg single oral dose 60 minutes prior to testing, saline control 129.7",68.7* sec
same,Mean duration of immobility,"male NIH-Swiss mice; Table V, 0.625 mg/kg single i.p. dose 30 minutes prior to testing, saline control 137.8",139.5 s
same,Mean duration of immobility,"male NIH-Swiss mice; Table V, 1.25 mg/kg single i.p. dose 30 minutes prior to testing, saline control 137.8",85.6* sec
same,Mean duration of immobility,"male NIH-Swiss mice; Table V, 2.5 mg/kg single i.p. dose 30 minutes prior to testing, saline control 137.8",68.5* sec
same,Mean duration of immobility,"male NIH-Swiss mice; Table V, 5 mg/kg single i.p. dose 30 minutes prior to testing, saline control 137.8",89.6* sec
same,Mean duration of immobility,"male NIH-Swiss mice; Table V, 10 mg/kg single i.p. dose 30 minutes prior to testing, saline control 137.8",106.1 s
same,time of peak effect (reduction in the duration of immobility) post-dosing,"male NIH-Swiss mice; mouse FST, single dose 5 mg/kg p.o.",60 min
same,Duration of Immobility,"male C57BL/6 mice; Table IX (experiment #2), 0.625 mg/kg single oral dose 60 minutes prior to testing, saline control 149.1",143.3 s
same,Duration of Immobility,"male C57BL/6 mice; Table IX (experiment #2), 1.25 mg/kg single oral dose 60 minutes prior to testing, saline control 149.1",125.8 s
same,Duration of Immobility,"male C57BL/6 mice; Table IX (experiment #2), 2.5 mg/kg single oral dose 60 minutes prior to testing, saline control 149.1",69.6* sec
same,Duration of Immobility,"male C57BL/6 mice; Table IX (experiment #2), 5 mg/kg single oral dose 60 minutes prior to testing, saline control 149.1",69.5* sec
same,Duration of Immobility,"male C57BL/6 mice; Table IX (experiment #2), 10 mg/kg single oral dose 60 minutes prior to testing, saline control 149.1",15.6* sec
same,Mean duration of immobility,male C57BL/6 mice; time post-dose 0.5,84.9* sec
same,Mean duration of immobility,male C57BL/6 mice; time post-dose 1,74.7* sec
same,Mean duration of immobility,male C57BL/6 mice; time post-dose 2,93.0* sec
same,Mean duration of immobility,male C57BL/6 mice; time post-dose 4,109.7 s
same,Mean duration of immobility,male C57BL/6 mice; time post-dose 6,125.5 s
same,Mean duration of immobility,male C57BL/6 mice; time post-dose 24,177.7 s
same,Duration of Immobility,"male C57BL/6 mice; Table VIII (experiment #1), 2.5 mg/kg single oral dose 60 minutes prior to testing, saline control 210.1",130.7* sec
same,Duration of Immobility,"male C57BL/6 mice; Table VIII (experiment #1), 5 mg/kg single oral dose 60 minutes prior to testing, saline control 210.1",123.5* sec
same,Duration of Immobility,"male C57BL/6 mice; Table VIII (experiment #1), 10 mg/kg single oral dose 60 minutes prior to testing, saline control 210.1",47.8* sec
same,time of peak effect (reduction in the duration of immobility) post-dosing,"male C57BL/6 mice; mouse TST, single 5-mg/kg oral dose",60 min
same,solubility,"Solubility; ethanol, organic solvent or mixture, EtOH",1000 mg/mL
same,solubility,"Solubility; water, H2O",2000 mg/mL

# Reference: patent US20040039014A1, “Methods and compounds for treating depression and other disorders” (NPS Pharmaceuticals, Inc., priority 1998, published 2004)
